Experimental data taken from ChEMBL document CHEMBL1156029, “The discovery of thienopyridine analogues as potent IkappaB kinase beta inhibitors. Part II” (Bioorg Med Chem Lett, 2009).
Active and inactive are the calls of the source. The calls are words filed in the database; no cut-off is given here.

Assays:
[1] = target: T1, Serine/threonine-protein kinase Chk1 (Homo sapiens) (UniProt O14757); test: Inhibition of CHK1 at 10 uM
T1 sequence (whole entry): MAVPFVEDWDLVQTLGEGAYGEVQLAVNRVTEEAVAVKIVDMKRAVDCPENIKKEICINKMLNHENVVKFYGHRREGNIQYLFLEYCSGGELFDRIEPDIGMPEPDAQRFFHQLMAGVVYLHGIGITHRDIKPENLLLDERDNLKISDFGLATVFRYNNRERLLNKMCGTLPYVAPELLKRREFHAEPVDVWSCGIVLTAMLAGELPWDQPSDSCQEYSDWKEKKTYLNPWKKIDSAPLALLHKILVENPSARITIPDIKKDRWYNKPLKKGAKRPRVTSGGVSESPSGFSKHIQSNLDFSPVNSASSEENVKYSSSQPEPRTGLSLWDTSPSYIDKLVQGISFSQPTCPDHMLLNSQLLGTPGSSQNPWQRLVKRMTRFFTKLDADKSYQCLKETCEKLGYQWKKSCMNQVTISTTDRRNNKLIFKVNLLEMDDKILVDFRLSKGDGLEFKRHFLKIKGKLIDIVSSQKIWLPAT

[2] = target: Tyrosine-protein kinase Lyn (Homo sapiens, UniProt P07948); test: Inhibition of Lyn
Mus musculus = test: Inhibition of LPS-induced TNFalpha production in mouse at 30 mg/kg, po administered 60 mins before LPS challenge; assay type: functional
[3] = target: T2, Inhibitor of nuclear factor kappa-B kinase subunit alpha (Homo sapiens, UniProt O15111); test: Inhibition of IKKalpha
T2 sequence (O15111 whole entry): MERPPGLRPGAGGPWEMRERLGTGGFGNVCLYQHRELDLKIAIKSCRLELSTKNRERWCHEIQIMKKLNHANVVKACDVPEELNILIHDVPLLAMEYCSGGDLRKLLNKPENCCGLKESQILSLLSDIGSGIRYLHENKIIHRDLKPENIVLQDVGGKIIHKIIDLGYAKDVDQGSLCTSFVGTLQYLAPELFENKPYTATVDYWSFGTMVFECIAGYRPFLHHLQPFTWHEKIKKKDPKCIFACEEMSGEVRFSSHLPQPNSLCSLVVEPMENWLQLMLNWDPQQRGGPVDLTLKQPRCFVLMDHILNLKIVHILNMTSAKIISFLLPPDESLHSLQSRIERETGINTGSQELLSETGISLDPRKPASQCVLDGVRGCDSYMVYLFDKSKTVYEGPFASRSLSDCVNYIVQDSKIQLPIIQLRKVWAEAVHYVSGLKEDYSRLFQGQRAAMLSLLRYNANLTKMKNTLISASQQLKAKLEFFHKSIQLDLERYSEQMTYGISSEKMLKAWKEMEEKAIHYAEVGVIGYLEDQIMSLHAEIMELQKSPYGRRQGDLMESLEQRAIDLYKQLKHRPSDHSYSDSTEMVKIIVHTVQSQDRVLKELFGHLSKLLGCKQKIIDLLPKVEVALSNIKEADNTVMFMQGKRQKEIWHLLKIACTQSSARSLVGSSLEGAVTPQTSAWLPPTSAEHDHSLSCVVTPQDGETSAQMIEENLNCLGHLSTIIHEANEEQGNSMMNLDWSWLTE

[4] = target: T3, MAP kinase-activated protein kinase 5 (Homo sapiens) (UniProt Q8IW41); test: Inhibition of PRAK at 10 uM
T3 sequence (whole entry): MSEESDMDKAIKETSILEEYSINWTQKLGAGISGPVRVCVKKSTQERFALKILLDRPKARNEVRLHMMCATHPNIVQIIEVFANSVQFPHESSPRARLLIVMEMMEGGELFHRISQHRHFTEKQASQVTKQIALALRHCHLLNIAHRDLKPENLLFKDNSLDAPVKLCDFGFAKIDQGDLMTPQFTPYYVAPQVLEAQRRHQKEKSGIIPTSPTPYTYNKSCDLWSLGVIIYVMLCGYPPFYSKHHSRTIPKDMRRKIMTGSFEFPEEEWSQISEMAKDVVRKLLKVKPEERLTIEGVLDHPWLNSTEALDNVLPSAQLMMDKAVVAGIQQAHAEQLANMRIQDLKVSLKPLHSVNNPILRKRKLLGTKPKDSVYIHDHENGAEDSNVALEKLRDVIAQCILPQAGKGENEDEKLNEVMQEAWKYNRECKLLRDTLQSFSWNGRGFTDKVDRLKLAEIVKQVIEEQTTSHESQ

Insulin receptor = Insulin receptor (Homo sapiens, UniProt P06213); test: Inhibition of IR
[5] = target: Ribosomal protein S6 kinase alpha-1 (Homo sapiens) (UniProt Q15418); test: Inhibition of MAPKAPK-1a at 10 uM
[6] = Inhibition of JNK/SAPK1c at 10 uM
[7] = Plasma concentration in mouse at 10 mg/kg, po after 120 mins; assay type: ADME, organism-based; set-up: dose 10 mg/kg, route oral
[8] = target: Cyclin-dependent kinase 2/cyclin A (Homo sapiens) (UniProt P24941+P20248+P78396); test: Inhibition of CDK2/cyclin A at 10 uM; assay type: protein-complex assay
[9] = target: High affinity nerve growth factor receptor (Homo sapiens, UniProt P04629); test: Inhibition of TrkA
[10] = target: Dual specificity mitogen-activated protein kinase kinase 1 (Homo sapiens) (UniProt Q02750); test: Inhibition of MKK1 at 10 uM
[11] = target: Epidermal growth factor receptor (Homo sapiens, UniProt P00533)
Sequence of Epidermal growth factor receptor (P00533 whole entry): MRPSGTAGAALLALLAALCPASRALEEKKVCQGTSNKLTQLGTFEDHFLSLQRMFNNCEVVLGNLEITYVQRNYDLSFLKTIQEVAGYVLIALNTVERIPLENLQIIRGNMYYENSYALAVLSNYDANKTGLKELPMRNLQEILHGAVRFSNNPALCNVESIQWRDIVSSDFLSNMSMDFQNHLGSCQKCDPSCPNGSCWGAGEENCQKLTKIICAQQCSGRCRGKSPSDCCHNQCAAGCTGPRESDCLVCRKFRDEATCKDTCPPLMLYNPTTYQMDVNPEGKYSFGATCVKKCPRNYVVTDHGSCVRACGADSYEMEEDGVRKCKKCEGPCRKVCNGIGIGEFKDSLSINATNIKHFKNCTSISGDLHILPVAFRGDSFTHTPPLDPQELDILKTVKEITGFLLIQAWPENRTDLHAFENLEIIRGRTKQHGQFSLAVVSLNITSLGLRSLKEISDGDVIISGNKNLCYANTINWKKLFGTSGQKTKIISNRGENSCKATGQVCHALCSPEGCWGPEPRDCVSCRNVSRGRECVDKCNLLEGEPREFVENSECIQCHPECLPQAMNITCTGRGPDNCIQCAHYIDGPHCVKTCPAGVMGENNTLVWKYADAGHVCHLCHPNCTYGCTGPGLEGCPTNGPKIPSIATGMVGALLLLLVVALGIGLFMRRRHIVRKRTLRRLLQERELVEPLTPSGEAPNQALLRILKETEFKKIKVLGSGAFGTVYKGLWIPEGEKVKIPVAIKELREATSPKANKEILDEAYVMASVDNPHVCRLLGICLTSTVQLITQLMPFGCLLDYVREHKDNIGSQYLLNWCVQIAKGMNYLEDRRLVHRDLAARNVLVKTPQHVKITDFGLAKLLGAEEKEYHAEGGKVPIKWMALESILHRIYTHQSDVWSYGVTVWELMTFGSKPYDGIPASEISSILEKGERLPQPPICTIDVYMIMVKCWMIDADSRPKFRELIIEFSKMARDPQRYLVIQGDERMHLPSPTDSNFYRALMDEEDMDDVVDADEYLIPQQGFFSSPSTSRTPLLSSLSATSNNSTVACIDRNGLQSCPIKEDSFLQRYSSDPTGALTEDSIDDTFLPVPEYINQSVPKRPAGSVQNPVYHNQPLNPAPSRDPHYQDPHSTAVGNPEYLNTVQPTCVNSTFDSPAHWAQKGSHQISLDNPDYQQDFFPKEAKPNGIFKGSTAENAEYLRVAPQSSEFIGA

Sequence of Tyrosine-protein kinase Lyn (P07948 whole entry): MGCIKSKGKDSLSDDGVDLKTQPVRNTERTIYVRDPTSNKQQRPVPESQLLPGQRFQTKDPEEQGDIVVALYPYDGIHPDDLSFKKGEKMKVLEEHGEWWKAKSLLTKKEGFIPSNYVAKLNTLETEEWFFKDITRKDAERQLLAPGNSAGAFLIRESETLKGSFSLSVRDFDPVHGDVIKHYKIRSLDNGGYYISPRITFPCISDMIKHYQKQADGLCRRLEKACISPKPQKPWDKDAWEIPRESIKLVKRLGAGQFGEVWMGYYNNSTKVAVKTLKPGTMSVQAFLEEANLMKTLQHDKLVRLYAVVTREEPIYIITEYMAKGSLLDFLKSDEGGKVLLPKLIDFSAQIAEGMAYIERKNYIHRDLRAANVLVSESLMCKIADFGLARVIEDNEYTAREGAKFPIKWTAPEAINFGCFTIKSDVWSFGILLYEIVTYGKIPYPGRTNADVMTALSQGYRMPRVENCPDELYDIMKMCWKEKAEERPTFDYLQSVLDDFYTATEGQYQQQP
Sequence of Insulin receptor (P06213 28-758 limits assumed): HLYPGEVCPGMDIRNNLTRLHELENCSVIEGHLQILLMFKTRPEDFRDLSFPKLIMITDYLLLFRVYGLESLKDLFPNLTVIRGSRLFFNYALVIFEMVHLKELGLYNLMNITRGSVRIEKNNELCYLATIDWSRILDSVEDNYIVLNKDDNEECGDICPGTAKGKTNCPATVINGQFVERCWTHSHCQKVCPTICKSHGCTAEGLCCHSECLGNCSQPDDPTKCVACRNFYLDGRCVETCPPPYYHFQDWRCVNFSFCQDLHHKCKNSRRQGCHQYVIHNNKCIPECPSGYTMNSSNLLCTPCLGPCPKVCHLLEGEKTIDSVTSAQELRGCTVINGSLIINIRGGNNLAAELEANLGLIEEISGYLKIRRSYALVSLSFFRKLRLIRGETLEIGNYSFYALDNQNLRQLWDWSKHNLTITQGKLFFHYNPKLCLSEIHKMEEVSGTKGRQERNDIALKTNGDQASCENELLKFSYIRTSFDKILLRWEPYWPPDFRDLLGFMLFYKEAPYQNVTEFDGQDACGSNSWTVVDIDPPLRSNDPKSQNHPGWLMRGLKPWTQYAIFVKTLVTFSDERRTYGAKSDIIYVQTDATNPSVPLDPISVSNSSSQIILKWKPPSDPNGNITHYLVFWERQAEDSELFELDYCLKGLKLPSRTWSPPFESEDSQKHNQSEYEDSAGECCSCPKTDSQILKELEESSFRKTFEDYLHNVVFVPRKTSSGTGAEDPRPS
Sequence of Insulin receptor (P06213 763-1382 limits assumed): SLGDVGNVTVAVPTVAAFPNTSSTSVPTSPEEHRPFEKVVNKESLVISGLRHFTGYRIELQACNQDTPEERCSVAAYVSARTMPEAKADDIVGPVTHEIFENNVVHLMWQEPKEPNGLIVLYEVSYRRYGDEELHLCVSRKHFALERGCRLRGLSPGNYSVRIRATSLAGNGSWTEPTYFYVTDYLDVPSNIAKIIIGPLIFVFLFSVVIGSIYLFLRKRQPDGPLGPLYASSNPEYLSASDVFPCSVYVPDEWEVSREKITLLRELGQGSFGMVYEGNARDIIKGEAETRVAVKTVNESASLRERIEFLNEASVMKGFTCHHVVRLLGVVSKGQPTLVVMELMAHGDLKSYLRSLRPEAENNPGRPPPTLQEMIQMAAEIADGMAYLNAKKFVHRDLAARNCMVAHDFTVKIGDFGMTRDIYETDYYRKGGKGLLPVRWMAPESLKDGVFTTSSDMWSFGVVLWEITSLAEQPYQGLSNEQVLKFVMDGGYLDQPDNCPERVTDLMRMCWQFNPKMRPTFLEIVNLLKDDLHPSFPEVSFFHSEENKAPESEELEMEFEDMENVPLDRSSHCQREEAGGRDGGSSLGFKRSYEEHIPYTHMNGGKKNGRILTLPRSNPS
Sequence of High affinity nerve growth factor receptor (P04629 whole entry): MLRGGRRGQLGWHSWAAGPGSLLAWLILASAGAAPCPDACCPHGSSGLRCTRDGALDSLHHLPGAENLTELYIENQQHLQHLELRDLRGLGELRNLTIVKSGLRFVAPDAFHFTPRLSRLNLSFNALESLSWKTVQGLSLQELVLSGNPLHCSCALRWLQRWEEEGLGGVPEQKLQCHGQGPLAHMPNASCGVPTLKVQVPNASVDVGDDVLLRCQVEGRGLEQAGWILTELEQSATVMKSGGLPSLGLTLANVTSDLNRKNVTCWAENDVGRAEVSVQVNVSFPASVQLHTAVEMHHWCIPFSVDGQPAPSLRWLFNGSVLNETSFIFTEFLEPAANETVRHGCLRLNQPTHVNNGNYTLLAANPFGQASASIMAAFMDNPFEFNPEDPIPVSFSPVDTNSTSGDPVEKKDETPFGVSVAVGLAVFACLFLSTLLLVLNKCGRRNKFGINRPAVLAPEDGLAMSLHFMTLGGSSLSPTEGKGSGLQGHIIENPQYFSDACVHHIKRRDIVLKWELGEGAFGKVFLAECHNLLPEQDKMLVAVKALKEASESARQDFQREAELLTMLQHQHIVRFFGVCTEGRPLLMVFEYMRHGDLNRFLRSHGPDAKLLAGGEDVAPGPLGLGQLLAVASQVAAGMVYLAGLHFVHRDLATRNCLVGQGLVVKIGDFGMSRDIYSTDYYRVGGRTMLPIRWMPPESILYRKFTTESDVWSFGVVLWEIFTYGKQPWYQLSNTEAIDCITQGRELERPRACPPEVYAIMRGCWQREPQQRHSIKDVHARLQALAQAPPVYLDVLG
Sequence of Dual specificity mitogen-activated protein kinase kinase 1 (Homo sapiens) (Q02750 whole entry): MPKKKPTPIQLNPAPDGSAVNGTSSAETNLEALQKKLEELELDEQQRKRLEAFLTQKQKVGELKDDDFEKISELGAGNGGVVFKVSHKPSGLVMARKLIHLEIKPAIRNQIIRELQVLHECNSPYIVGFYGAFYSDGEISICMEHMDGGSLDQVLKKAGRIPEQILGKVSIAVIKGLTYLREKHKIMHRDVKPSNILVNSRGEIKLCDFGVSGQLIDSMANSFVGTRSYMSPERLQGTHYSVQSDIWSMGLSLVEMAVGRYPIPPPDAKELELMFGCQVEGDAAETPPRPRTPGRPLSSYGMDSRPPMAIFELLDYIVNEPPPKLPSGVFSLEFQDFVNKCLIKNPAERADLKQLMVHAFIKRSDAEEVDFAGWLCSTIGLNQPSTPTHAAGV
Sequence of Ribosomal protein S6 kinase alpha-1 (Homo sapiens) (Q15418 whole entry): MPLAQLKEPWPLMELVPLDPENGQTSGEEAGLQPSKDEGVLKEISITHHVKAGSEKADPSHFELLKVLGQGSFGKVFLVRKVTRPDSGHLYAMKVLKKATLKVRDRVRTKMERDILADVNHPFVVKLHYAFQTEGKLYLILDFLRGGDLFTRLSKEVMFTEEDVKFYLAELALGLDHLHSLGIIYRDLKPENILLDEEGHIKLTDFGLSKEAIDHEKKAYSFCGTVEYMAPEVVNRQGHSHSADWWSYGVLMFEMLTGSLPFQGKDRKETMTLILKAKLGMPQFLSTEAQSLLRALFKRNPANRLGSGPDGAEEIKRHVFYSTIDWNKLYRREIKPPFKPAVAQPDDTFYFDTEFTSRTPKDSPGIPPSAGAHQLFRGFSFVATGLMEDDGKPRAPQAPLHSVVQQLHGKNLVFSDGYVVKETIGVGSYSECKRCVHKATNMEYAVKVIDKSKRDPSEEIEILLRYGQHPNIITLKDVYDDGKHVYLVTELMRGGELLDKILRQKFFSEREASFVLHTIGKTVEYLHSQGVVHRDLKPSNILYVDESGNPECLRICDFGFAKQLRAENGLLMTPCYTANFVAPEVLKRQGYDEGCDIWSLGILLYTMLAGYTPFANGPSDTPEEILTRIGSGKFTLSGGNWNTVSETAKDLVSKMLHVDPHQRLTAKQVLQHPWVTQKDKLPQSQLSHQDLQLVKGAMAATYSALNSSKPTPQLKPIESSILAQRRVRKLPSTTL

SMILES | Activity [1] | IC50 [2] [µM] | inhibition in vivo at 30 mg/kg (Mus musculus) [%] | IC50 [3] [µM] | Activity [4] | IC50 (Insulin receptor) [µM] | Activity [5] | Activity [6] | concentration at 2 h [7] [nM] | Activity [8] | IC50 [9] [µM] | Activity [10] | IC50 [11] [µM]
CCCc1cc(N2CCC(N)CC2)nc2sc(C(N)=O)c(N)c12 | inactive | > 7 | 14 | 0.09 | inactive | > 7 | inactive | inactive | < 10 | inactive | > 7 | inactive | 
CCCc1cc(N2CCCC(O)C2)nc2sc(C(N)=O)c(N)c12 (configuration not stated) | inactive | > 7 | 67 | 13.3 | inactive | > 7 | inactive | inactive | 170 | inactive | > 7 | inactive | > 7
CCCc1cc(N2CCC(O)CC2)nc2sc(C(N)=O)c(N)c12 | inactive | > 7 | 94 | 11.2 | inactive | > 7 | inactive | inactive | 1600 | inactive |  | inactive | 
CCCc1cc(N2CCNCC2)nc2sc(C(N)=O)c(N)c12 | inactive | > 7 | 35 | 3.4 | inactive |  | inactive | inactive | < 10 | inactive | > 7 | inactive | 
